Experimental data: patent publication US20250195638A1, “TREATMENT AND PREVENTION OF CONDITIONS ASSOCIATED WITH RESPIRATORY DISEASES” (priority 2020, published 2025)

Test system: Plasmid (pMB57.6)-DNA
Assay type: binding
Details: 0.5 μM

## SARS-CoV-2 (2019-nCoV) nucleocapsid recombinant protein [N-protein]
  decrease of fluorescence intensity of DNA-DiYO-1 complex: 96.3%
